Test results as given in US20120107317A1, “USE OF CYTOPLASMIC C-MYC FOR REGULATING IMMUNE RESPONSES” (priority 2010, published 2012).
Where two headings read alike, the source gives them in different places.

What was measured:
[1] = tested on: BCG-induced c-Myc mRNA expression; format: cell-based, human; settings: then BCG (M.O.I.=1) 3 hours, vs DMSO
c-Myc [2] = settings: cited from earlier work
[3] = target: T1, c-Myc (endogenous protein of primary human blood macrophages) (human, UniProt P01106 16-454); experiment: co-immunoprecipitation with anti-c-Myc antibody from PBMac lysates, Western blot
T1 construct: Endogenous c-Myc in lysates of primary human blood macrophages (PBMac), with or without BCG treatment; also called cytoplasmic c-Myc
T1 sequence (P01106 16-454 limits assumed): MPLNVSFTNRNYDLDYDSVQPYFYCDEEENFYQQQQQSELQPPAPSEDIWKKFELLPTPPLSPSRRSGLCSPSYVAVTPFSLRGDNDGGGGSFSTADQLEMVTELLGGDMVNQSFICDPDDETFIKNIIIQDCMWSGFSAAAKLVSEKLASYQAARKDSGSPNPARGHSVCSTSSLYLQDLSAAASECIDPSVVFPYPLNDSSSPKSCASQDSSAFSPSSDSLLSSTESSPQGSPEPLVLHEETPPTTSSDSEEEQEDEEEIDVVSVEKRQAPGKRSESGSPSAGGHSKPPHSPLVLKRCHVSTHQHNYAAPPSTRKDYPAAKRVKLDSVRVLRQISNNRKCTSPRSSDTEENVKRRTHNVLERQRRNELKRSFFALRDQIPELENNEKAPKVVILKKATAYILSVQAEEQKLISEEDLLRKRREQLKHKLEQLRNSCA
Protocol: Total proteins (200 μg) were extracted from PBMac by IP buffer (10 mM Tris [pH7.4], 1 mM EDTA, 1 mM EGTA, 150 mM NaCl, 0.5% NP-40, 1% Triton X-100, inhibitor cocktails of proteases and phosphatases), and were incubated with 1μg primary antibodies against IκBα(Santa Cruz Biotechnology, USA) or c-Myc (Millipore, USA) for 2 hours at 4° C. and then with 20 μl Protein A/G agarose beads (Santa Cruz Biotechnology, USA) for 1 hour at 4° C. The immunoprecipitates were then washed 6 times with IP buffer. Cytoplasmic and nuclear proteins were extracted from PBMac as previously described (Cheung et al., 2005; Lee et al., 2005). Immunoprecipitated, cytoplasmic (50 μg) or nuclear proteins (10 μg) were analyzed by Western Blot as in our previous reports (Cheung et al., 2005; Lee et al., 2005).

c-Myc [4] = experiment: Induction of c-Myc expression by HIV-1 Tat in primary human blood macrophages (RT-PCR, Western blot); format: cell-based; settings: Tat 2, 4 or 6 hours (mRNA); 20 or 100 ng/ml 24 hours (protein)
Protocol: Briefly, PBMac were treated with or without Tat ([…]) for indicated time points (2, 4 or 6 hours). Total RNA was extracted for analyzing c-Myc mRNA expression levels by quantitative RT-PCR. In addition, PBMac were treated with HIV-1 Tat (20 or 100 ng/ml) for 24 hours. Cellular proteins were extracted for Western blot analyses to determine protein levels of c-Myc and actin. The level of actin was measured as a control of the amount of proteins loaded.

[5] = 10 μM inhibitor 1 hour pretreatment

Molecule: O=C(/C=C/c1ccc(O)c(O)c1)OCCc1ccccc1 [CAPE]
- level of BCG-induced c-Myc mRNA expression ([1]; 15 μg/ml inhibitor 1 hour pretreatment): did not affect

Molecule: C[n+]1ccc(-c2c3nc(c(-c4cc[n+](C)cc4)c4ccc([nH]4)c(-c4cc[n+](C)cc4)c4ccc([nH]4)c(-c4cc[n+](C)cc4)c4nc2C=C4)C=C3)cc1 [Cationic Porphyrin TMPyP4]
- expression and activity of c-Myc (c-Myc [2]): inhibit both the expression and activity of c-Myc

Molecule: COc1cccc(-c2cc(=O)c3ccccc3o2)c1N [PD98059]
- level of BCG-induced c-Myc mRNA expression [1, 5]: significantly reduced

Molecule: C[S+]([O-])c1ccc(-c2nc(-c3ccncc3)c(-c3ccc(F)cc3)[nH]2)cc1 (stereo not shown) [SB203580]
- level of BCG-induced c-Myc mRNA expression [1, 5]: did not affect

Molecule: O=C1c2ccccc2-c2n[nH]c3cccc1c23 [SP600159]
- level of BCG-induced c-Myc mRNA expression [1, 5]: significantly reduced

B1: ERK1 (member of ERK1/2, endogenous protein of primary human blood macrophages) (enzyme, UniProt P27361 2-379, looked up)
chain: AAAAAQGGGGGEPRRTEGVGPGVPGEVEMVKGQPFDVGPRYTQLQYIGEGAYGMVSSAYDHVRKTRVAIKKISPFEHQTYCQRTLREIQILLRFRHENVIGIRDILRASTLEAMRDVYIVQDLMETDLYKLLKSQQLSNDHICYFLYQILRGLKYIHSANVLHRDLKPSNLLINTTCDLKICDFGLARIADPEHDHTGFLTEYVATRWYRAPEIMLNSKGYTKSIDIWSVGCILAEMLSNRPIFPGKHYLDQLNHILGILGSPSQEDLNCIINMKARNYLQSLPSKTKVAWAKLFPKSDSKALDLLDRMLTFNPNKRITVEEALAHPYLEQYYDPTDEPVAEEPFTFAMELDDLPKERLKELIFQETARFQPGVLEAP
notes: It is split here into its two members
- binding result [3]: no binding

B2: HIV-1 Tat: HIV-1 Tat protein used to treat primary human blood macrophages (protein, UniProt P04608 1-86, looked up)
Protein Tat: MEPVDPRLEPWKHPGSQPKTACTNCYCKKCCFHCQVCFITKALGISYGRKKRRQRRRAHQNSQTHQASLSKQPTSQPRGDPTGPKE
- c-Myc expression (mRNA and protein) (c-Myc [4]): induces c-Myc expression
